How the values were obtained:
Human TLR3 = target: T1, Human TLR3 (Homo sapiens, UniProt O15455); test: Human TLR antagonist screening, NF-κB SEAP reporter in HEK293 cells; type: cell-based; details: antagonist mode, test article 1 μM, +Poly(I:C) 50 ng/ml, No Sample 14, Control− 1
T1 construct: expressed in transfected cells; host or cells: HEK293
T1 sequence (O15455 24-904): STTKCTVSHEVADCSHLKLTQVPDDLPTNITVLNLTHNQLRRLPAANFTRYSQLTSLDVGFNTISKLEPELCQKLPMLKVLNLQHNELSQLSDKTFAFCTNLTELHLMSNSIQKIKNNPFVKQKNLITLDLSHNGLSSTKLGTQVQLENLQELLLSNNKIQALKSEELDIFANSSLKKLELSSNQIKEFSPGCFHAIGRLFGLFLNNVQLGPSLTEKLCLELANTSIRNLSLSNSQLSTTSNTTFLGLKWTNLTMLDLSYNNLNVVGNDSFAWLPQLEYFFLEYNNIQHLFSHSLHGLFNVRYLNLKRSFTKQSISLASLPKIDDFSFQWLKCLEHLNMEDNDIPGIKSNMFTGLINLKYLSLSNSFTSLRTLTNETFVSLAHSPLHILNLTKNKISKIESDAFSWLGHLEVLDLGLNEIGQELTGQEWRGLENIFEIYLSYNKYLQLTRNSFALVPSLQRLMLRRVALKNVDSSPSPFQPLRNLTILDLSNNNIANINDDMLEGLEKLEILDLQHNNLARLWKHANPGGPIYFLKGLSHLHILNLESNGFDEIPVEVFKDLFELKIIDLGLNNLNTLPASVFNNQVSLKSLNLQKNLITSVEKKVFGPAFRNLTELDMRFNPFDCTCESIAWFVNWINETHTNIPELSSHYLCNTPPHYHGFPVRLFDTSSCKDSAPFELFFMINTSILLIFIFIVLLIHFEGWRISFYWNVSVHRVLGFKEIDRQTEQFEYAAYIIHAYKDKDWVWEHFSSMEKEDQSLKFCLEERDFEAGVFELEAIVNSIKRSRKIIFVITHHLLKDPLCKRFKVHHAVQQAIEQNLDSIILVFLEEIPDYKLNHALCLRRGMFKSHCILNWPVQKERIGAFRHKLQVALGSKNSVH
Method: (§1) Toll-Like Receptor (TLR), NOD-Like Receptor (NLR) and C-Type Lectin Receptor (CLR) stimulation were tested by assessing NF-κB activation in HEK293 cells expressing a given TLR, NLR or CLR. The activity of the test articles was tested at one concentration and compared to control ligands. These steps were performed in triplicate. hTLR3: Poly(I:C) HMW at 1 μg/mL Antagonist: 50 ng/mL. In a 96-well plate (200 μL total volume) containing the appropriate cells (50,000-75,000 cells/well), 20 μL of the test article or the positive control ligand was added to the wells. For the antagonist assay, the test article was incubated with the cells, at 37° C. with 5% CO2, for 30 minutes prior to the addition of the positive control ligand to the wells. The media added to the wells was designed for the detection of NF-κB induced SEAP expression. After a 16-24 hr incubation the optical density (OD) was read at 650 nm on a Molecular Devices SpectraMax 340PC absorbance detector. Fold induction (ratio of average induced value to average non-induced value) was determined for each TLR, NOD1, NOD2, Dectin-1a, Dectin-1b.

hTLR9 = target: T2, hTLR9 (Homo sapiens, UniProt Q9NR96); test: as above; type: cell-based; details: antagonist mode, test article 1 μM, +ODN 2006 500 ng/ml; No Sample 7, Control− 1
T2 construct: expressed in transfected cells; host or cells: HEK293
T2 sequence (Q9NR96 26-1032): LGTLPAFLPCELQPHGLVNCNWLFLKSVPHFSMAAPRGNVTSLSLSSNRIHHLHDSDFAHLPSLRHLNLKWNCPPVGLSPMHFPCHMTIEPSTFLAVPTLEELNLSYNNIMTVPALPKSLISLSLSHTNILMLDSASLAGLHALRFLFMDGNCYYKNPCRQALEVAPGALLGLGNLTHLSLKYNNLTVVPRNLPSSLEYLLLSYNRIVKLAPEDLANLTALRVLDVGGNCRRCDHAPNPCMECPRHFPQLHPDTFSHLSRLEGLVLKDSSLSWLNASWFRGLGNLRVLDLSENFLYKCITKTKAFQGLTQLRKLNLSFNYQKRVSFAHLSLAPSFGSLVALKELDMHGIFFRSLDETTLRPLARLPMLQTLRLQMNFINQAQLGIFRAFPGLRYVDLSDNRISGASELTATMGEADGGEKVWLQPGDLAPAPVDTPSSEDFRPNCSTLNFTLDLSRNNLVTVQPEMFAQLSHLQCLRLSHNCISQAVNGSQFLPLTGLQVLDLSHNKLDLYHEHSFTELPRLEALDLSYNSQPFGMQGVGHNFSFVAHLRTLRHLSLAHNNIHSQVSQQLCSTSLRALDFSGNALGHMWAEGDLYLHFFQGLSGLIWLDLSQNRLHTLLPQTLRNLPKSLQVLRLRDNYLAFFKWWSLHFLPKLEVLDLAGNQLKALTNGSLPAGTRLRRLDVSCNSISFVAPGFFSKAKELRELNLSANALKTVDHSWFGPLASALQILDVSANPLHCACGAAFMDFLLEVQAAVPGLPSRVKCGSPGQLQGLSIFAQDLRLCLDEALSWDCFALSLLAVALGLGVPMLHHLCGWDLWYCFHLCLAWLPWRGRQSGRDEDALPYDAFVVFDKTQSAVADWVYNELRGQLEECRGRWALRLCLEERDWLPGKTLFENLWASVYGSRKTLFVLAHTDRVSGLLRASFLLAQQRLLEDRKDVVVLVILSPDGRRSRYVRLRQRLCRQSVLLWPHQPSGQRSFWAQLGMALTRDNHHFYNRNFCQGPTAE
Method: as §1, with “triplicate. hTLR9: CpG ODN 2006” for “triplicate. hTLR3: Poly(I:C) HMW”, “Antagonist: 500” for “Antagonist: 50”

Row | SMILES | Fold Induction (Human TLR3) | Fold Induction (Human TLR3; listed as Ami) | Fold Induction (hTLR9) | Fold Induction (Human TLR3; listed as Nor)
1 | CN(C)CCC=C1c2ccccc2CCc2ccccc21 [Amitriptyline] | slight inhibitory effect | 12 | slight inhibitory effect | 
2 | CNCCC=C1c2ccccc2CCc2ccccc21 [Nortriptyline] | slight inhibitory effect |  | slight inhibitory effect | 12

— patent US11400059B2, “Treatment of pain and/or pain related symptoms associated with dysmenorrhea” (ALYRA BIOTECH PTY LTD, priority 2017, dated 2022)
